Assay results: patent US8318186B2, “Use of at least a fatty ester for preparing a composition designed to inhibit 5-α-reductase activity, in pharmacology, in particular dermatology, in cosmetics and as food additive” (Laboratoires Expanscience, priority 2000, dated 2012)

Target: T1, 5α-reductase (Homo sapiens, UniProt P18405)
T1 construct: endogenous in cells; host or cells: DU145 prostate carcinoma cells (ATCC HTB 81)
T1 sequence (P18405 1-259): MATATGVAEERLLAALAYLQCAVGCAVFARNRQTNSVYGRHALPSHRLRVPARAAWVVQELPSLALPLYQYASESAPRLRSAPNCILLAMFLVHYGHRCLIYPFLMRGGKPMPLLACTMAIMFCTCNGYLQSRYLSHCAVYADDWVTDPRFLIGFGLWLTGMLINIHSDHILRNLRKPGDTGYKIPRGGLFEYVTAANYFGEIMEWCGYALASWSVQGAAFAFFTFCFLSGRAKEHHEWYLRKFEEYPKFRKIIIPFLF
Experiment: Inhibition of the 5α-reductase of DU145 cells: quantity of 5-dihydrotestosterone formed from testosterone (RIA)
Type: cell-based
Procedure: The prostatic cells DU145 are derived from a tumor line obtained from a prostate carcinoma (ATCC No. HTB 81). The MEM medium (ref. 0410265), the glutamine and the gentamycin are from Gibco. The fetal calf serum (FCS) is from DAP and is used decomplementized ([…] at 56° C.). The plastics serving for the culture (dishes and plates) are from Costar. The testosterone is from Sigma.
A stock solution in ethanol at 10 mg/ml is prepared from each of the products tested.
The concentration range used for the experiments is the following: 0, 5, 10, 50, 100 and 500 micrograms/ml. (Dilution performed in the culture medium).
The volume of extract added per well being 20 microliters/well, the solutions to be prepared are concentrated 50×.
A stock solution of testosterone at 10 mM is prepared in ethanol. At the time of its use, this solution is diluted 1:1 000 in the culture medium and 10 microliters are added per well.
The prostatic cells DU145 are cultured at 37° C., 5% Co2 in an MEM medium containing glutamine (2 mM), gentamycin (50 micrograms/ml) and 10% FCS. Their subculture rate is 1:10.
Before starting the experiment, the cells are placed in culture in 6-well plates at the rate of 2×10^5 DU145 cells per well/1 ml of medium containing only 1% FCS. The cells are maintained for 3 days at 37° C., 5% CO2. […]

IC50 (testosterone 0.1 micromolar, 3 hours, read-out: IC 50, conversion of testosterone to 5-dihydrotestosterone by the DU 145 cells (converted)): 1300 µM
SMILES: CCCCCCCC/C=C\CCCCCCCC(=O)OC [Methyl oleate, methyl oleate]
5α-reductase inhibitory activity, in words (conclusions of Example 2): markedly less active than the methyl esters of avocado
